Like-named read-outs stand apart in the source and are kept apart here. Marks after values point to notes of the source that are not given here.
Assays:
recombinant human COX‐2 = target: T1, recombinant human COX‐2 (Homo sapiens, UniProt P35354); assay type: biochemical; conditions: for IC50: read-out: IC50 [μM] (95% CI) COX‐2
T1 construct: purchased Cayman Chemical Company
T1 sequence (P35354 18-604): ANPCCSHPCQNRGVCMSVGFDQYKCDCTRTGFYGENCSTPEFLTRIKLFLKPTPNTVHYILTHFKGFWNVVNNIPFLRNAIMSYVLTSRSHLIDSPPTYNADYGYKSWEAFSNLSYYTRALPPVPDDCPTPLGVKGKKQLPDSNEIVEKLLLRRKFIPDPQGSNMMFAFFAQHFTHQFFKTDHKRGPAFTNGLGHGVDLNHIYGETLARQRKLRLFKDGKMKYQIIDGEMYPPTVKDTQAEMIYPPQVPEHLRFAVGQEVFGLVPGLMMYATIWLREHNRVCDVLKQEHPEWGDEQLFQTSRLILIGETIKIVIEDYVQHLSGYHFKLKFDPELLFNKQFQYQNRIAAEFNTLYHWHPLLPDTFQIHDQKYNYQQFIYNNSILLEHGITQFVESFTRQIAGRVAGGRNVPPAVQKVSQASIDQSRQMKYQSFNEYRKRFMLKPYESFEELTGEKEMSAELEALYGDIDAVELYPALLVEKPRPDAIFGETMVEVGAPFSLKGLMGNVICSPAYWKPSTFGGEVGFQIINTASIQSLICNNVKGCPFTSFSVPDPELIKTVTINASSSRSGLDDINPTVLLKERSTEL
Text: (§1) For the cyclooxygenase assays, the fluorescence‐based COX assay “COX Fluorescent Inhibitor Screening Assay Kit” (Cayman Chemical Company, Ann Arbor, MI, USA) was used according to the manufacturer's instructions. […] All concentrations have been tested at least in duplicate.

ovine COX‐1 = target: T2, ovine COX‐1 (Ovis aries, UniProt P05979); test: COX Fluorescent Inhibitor Screening Assay Kit (Cayman), COX-1 inhibition; assay type: biochemical; conditions: for IC50: read-out: IC50 [μM] (95% CI) COX‐1, absolute IC50
T2 construct: purchased Cayman Chemical Company
T2 sequence (P05979 25-600): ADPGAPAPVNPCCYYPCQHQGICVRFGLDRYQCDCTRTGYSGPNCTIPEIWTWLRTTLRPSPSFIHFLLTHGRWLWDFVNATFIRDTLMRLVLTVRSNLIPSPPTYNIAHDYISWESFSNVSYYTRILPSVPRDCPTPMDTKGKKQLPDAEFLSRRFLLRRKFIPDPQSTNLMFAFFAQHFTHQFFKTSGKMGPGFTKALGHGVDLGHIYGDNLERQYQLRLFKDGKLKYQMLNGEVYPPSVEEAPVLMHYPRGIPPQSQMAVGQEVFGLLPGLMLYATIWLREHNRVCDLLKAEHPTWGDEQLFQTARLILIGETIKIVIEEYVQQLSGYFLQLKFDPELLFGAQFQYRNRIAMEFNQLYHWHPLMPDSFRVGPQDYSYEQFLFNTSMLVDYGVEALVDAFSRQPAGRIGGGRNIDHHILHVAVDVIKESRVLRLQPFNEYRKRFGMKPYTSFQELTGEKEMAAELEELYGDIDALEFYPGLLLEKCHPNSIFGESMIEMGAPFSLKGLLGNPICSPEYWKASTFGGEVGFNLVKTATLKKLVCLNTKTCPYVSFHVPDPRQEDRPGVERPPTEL
Text: as §1

[1] = Stability in DMSO/water (1:1, v/v) by HPLC-UV-MS or analytical HPLC; assay type: physicochemical; conditions: DMSO/H2O (1:1, v/v), RP-HPLC
Method: The stability of compounds 6, 7, 9, 10, 13a,b, and 14a,b in aqueous solution was studied by HPLC‐UV‐MS or analytical HPLC measurements as well (see Supporting Information for details, “4 HPLC Stability Determination of Compounds 6, 7, 9, 10, 13a, 13b, 14a, 14b”). All compounds except 13a were stable for at least one day (Supporting Information, section 4 ).
The stability was evaluated for all compounds in a mixture of DMSO, dried over molecular sieve, and LC‐MS grade water (1:1, v/v) with the same HPLC‐UV‐MS systems as described under “Purity Determination”. The column, eluent system, flow and MS tool were operated in the same way. For the stability determination, a few milligrams of each compound were dissolved in 1 mL DMSO. To dissolve the compounds, they were vortexed and heated up if necessary. The stock solution was further diluted with water. For that, 50–100 μL of the stock solution was transferred into a vial and the same amount of LC‐MS grade water was added. The two solvents were mixed thoroughly, and the measurement with HPLC‐UV‐MS was directly started. Additionally, measurements were performed in a varying time frame, from 15 or 20 min to 1 day. Usually, the injection volume was 10 μL, and before the measurement of the samples, a blank run with only DMSO/LC‐MS grade water (1:1, v/v) was performed. […] For the latter compounds, the aforementioned system (Agilent 1200 system) and the following gradient was used: 0–3 min 45% eluent B, 3–28 min 45%–95% eluent B, 28–34 min 95% eluent B, 34–35 min 95%–45% eluent B, then 35–40 min 45% eluent B, flow: 0.75 mL min^−1.
4 Stability Determination of Compounds 6, 7, 9, 10, 13a, 13b, 14a, 14b by HPLC A few milligrams of each compound have been dissolved in 1 mL DMSO, which was stored over molecular sieve.
50-100 µL of the DMSO solution have been transferred into a separate vial together with the same amount of LC-MS grade water. The mixture was measured directly after water addition and in time intervals from 20 min to 1 d by HPLC-UV-MS or analytical HPLC measurements. All compounds were stable for at least one day except for […]
rather for its nido-carborane analog, which was anyway the most prominent side product, no further stability measurements have been performed.
Figure S74. RP-HPLC chromatograms of blank (DMSO/H2O, black and green) and compound 6, retention time: 10.5 min, purity after 1 d: >98%.
Figure S75. RP-HPLC chromatograms of blank (DMSO/H2O, blue and pink) and compound 7, retention time: 8.3 min, purity after 1 d: >96%. […]

[2] = 100 μM, n = 2, n.i. = no inhibition (%‐inhibition < 5 %)
[3] = Inhibition at 98 μM instead of 100 μM, n = 2

Substance	%‐inhibition at 100 [μM] (n = 2) COX‐2 (recombinant human COX‐2; [2]) [%]	IC50 (recombinant human COX‐2; absolute IC50) [µM]	SI = IC50(COX‐1)/IC50(COX‐2) (recombinant human COX‐2; selectivity index)	%‐inhibition at 100 [μM] (n = 2) COX‐1 (ovine COX‐1; n = 2) [%]	IC50 (ovine COX‐1) [µM]	purity after 1 d [1] [%]	IC50 [μM] (95% CI) COX‐2 (recombinant human COX‐2; absolute IC50)	SI = IC50(COX‐1)/IC50(COX‐2) (recombinant human COX‐2)	%‐inhibition at 100 [μM] (n = 2) COX‐2 (recombinant human COX‐2; 100 µM) [%]	%‐inhibition (n = 2) COX‐2 (recombinant human COX‐2; [3])	%‐inhibition (n = 2) COX‐1 (ovine COX‐1; [3])
Cesium N‐[3‐(7,8‐nido‐dicarbadodecahydroundecaborate(−1))propyl]‐4‐[5‐(p‐tolyl)‐3‐(trifluoromethyl)‐1H‐pyrazol‐1‐yl]benzenesulfonamide [Compound 7]	100	8.75	1.28	94	11.2	> 96	–	–	–	–	–
N,N‐Bis[3‐(1,2‐closo‐dicarbadodecaborane)propyl]‐4‐[5‐(p‐tolyl)‐3‐(trifluoromethyl)‐1H‐pyrazol‐1‐yl]benzenesulfonamide [Compound 9]	–	–	–	–	> 320	> 99	–	–	–	–	–
Di‐cesium N,N‐bis[3‐(7,8‐nido‐dicarbadodecahydroundecaborate(−1))propyl]‐4‐[5‐(p‐tolyl)‐3‐(trifluoromethyl)‐1H‐pyrazol‐1‐yl]benzenesulfonamide [Compound 10]	103	0.34	10.3	103	3.49	> 99	sub‐μM range	–	–	–	–
Cesium (R/S)‐2‐[2‐fluoro‐(1,1'‐biphenyl)‐4‐yl]‐N‐(7,8‐nido‐dicarbadodecahydroundecaborate(−1))‐ethylpropanamide [Compound 14b]	–	–	–	72	–	–	–	2.7	80	–	–
Cesium (R/S)‐2‐[2‐fluoro‐(1,1′‐biphenyl)‐4‐yl]‐N‐(7,8‐nido‐dicarbadodecahydroundecaborate(−1))‐methylpropanamide [Compound 14a]	–	–	–	94	–	–	–	1.9	91	–	–
N‐[3‐(1,2‐closo‐dicarbadodecaborane)propyl]‐4‐[5‐(p‐tolyl)‐3‐(trifluoromethyl)‐1H‐pyrazol‐1‐yl]benzenesulfonamide [Compound 6]	≤ 55	120	–	≤ 55	–	> 98	–	–	–	54 ^b) %	9 ^b) %

— article PMC12132917, “Carborane‐Based Analogs of Celecoxib and Flurbiprofen, their COX Inhibition Potential, and COX Selectivity Index” (Chemmedchem, 2025)
